{"source": "ChEMBL document CHEMBL3044987", "about": "“7-chloro-3-(substituted benzylidene/phenyl ethylidene amino)-2-phenylquinazolin-4(3H)-ones: synthesis, antimicrobial and antitubercular evaluation” (2012)", "assay_type_in_all_cases": "functional", "key": {"Staphylococcus aureus": {"tested_on": "Staphylococcus aureus", "assay": "Antibacterial activity against Staphylococcus aureus ATCC 6538 after 24 hr by disk diffusion method"}, "Pseudomonas aeruginosa": {"tested_on": "Pseudomonas aeruginosa", "assay": "Antibacterial activity against Pseudomonas aeruginosa ATCC 27853 after 24 hr by disk diffusion method"}, "Escherichia coli": {"tested_on": "Escherichia coli", "assay": "Antibacterial activity against Escherichia coli ATCC 25922 after 24 hr by disk diffusion method"}}, "data": [{"compound": "COc1cc(/C=N/n2c(-c3ccccc3)nc3cc(Cl)ccc3c2=O)ccc1O", "values": [{"measurement": "inhibition zone (IZ)", "setting": "Staphylococcus aureus", "value": 15, "unit": "mm"}, {"measurement": "inhibition zone (IZ)", "setting": "Pseudomonas aeruginosa", "value": 5, "unit": "mm"}, {"measurement": "inhibition zone (IZ)", "setting": "Escherichia coli", "value": 21, "unit": "mm"}]}, {"compound": "O=C(O)c1cn(C2CC2)c2cc(N3CCNCC3)c(F)cc2c1=O", "note": "[CIPROFLOXACIN]", "values": [{"measurement": "inhibition zone (IZ)", "setting": "Staphylococcus aureus", "value": 17, "unit": "mm"}, {"measurement": "inhibition zone (IZ)", "setting": "Pseudomonas aeruginosa", "value": 18, "unit": "mm"}]}, {"compound": "C/C(=N\\n1c(-c2ccccc2)nc2cc(Cl)ccc2c1=O)c1ccc(O)cc1", "values": [{"measurement": "inhibition zone (IZ)", "setting": "Staphylococcus aureus", "value": 15, "unit": "mm"}, {"measurement": "inhibition zone (IZ)", "setting": "Pseudomonas aeruginosa", "value": 4, "unit": "mm"}, {"measurement": "inhibition zone (IZ)", "setting": "Escherichia coli", "value": 22, "unit": "mm"}]}, {"compound": "C/C(=N\\n1c(-c2ccccc2)nc2cc(Cl)ccc2c1=O)c1ccc(Cl)cc1", "values": [{"measurement": "inhibition zone (IZ)", "setting": "Staphylococcus aureus", "value": 15, "unit": "mm"}, {"measurement": "inhibition zone (IZ)", "setting": "Pseudomonas aeruginosa", "value": 4, "unit": "mm"}, {"measurement": "inhibition zone (IZ)", "setting": "Escherichia coli", "value": 22, "unit": "mm"}]}]}
